For 26 compounds, IC50 results are on record in US9458153B2, “Dihydroquinolizinones for the treatment and prophylaxis of hepatitis B virus infection” (Hoffmann-La Roche Inc., priority 2014, dated 2016).

pIC50: −log10 of the molar value.

One experiment deals with HBsAg. Kind of experiment: HBsAg assay (chemiluminescence immunoassay of secreted HBsAg in HepG2.2.15 culture supernatant). The conditions noted are these: HBsAg secretion reduced by 50% vs no drug control; HepG2.2.15 cells; CLIA kit. The experiment is classed as cell-based, HBV. On the procedure: HepG2.2.15 cells (Acs et al. Proc Natl Acad Sci USA, 84, (1987), 4641-4), a constitutively HBV-expressing cell line were cultured in DMEM+Glutamax-I medium (Invitrogen, Carlsbad, Calif., USA), supplemented with 10% fetal bovine serum (Invitrogen) and G418 (Invitrogen) at a final concentration of 200 mg/L and maintained in 5% CO2 at 37° C.
HepG2.2.15 cells were seeded in duplicate into white, 96-well plates at 1.5×10^4 cells/well. The cells were treated with a three-fold serial dilution series of the compounds in DMSO. The final DMSO concentration in all wells was 1% and DMSO was used as no drug control.
The HBsAg chemiluminescence immunoassay (CLIA) kit (Autobio Diagnostics Co., Zhengzhou, China, Catalog number: CL0310-2) was used to measure the levels of secreted HBV antigens semi-quantitatively. For the detection 50 μL/well culture supernatant was used and HBsAg was quantified using HBsAg chemiluminescence immunoassay (CLIA) kit (Autobio Diagnostics Co., Zhengzhou, China, Catalog number: CL0310-2), 50 μL of the supernatant was transferred to the CLIA assay plate and 50 μL of enzyme conjugate reagent was added into each well. The plates were sealed and gently agitated for 1 hour at room temperature. The supernatant-enzyme-mixture was discarded and wells were washed 6 times with 300 μL of PBS. The residual liquid was removed by plating the CLIA plate right side down on absorbent tissue paper. 25 μL of substrates A and B were added to each well. Luminance was measured using a luminometer (Mithras LB 940 Multimode Microplate Reader) after 10 minutes incubation. Dose-response curves were generated and the IC50 value was extrapolated by using the E-WorkBook Suite (ID Business Solutions Ltd., Guildford, UK).
The compounds of the present invention were tested for their capacity to inhibit HBsAg as described herein.
Broadly, the pIC50 is the negative decadic logarithm of the IC50, by convention in mol/L. Low readings indicate a high IC50, high ones a low IC50. For `CCC1Cc2cc(OCc3ccccc3)c(OC)cc2-c2cc(=O)c(C(=O)O)cn21` (single isomer, unassigned; (+)) [Example 9, (+)-9-benzyloxy-6-ethyl-10-methoxy-2-oxo-6,7-dihydrobenzo[a]quinolizine-3-carboxylic acid], the pIC50 was 7.82.
`CCC1Cc2cc(OCC(C)(C)CO)c(OC)cc2-c2cc(=O)c(C(=O)O)cn21` (single isomer, unassigned; (+)) [Example 23, (+)-6-ethyl-9-(3-hydroxy-2,2-dimethyl-propoxy)-10-methoxy-2-oxo-6,7-dihydrobenzo[a]quinolizine-3-carboxylic acid] had a pIC50 of 7.92.
On the same count and under the same terms, as for `CCC1Cc2cc(OCCOC)c(OC)cc2-c2cc(=O)c(C(=O)O)cn21` (single isomer, unassigned; (+)) [Example 28, (+)-6-ethyl-10-methoxy-9-(2-methoxyethoxy)-2-oxo-6,7-dihydrobenzo[a]quinolizine-3-carboxylic acid], the figure is 7.54; as for `CCC1Cc2cc(OCC3CC3)c(OC)cc2-c2cc(=O)c(C(=O)O)cn21` (single isomer, unassigned; (+)) [Example 31, (+)-9-(cyclopropylmethoxy)-6-ethyl-10-methoxy-2-oxo-6,7-dihydrobenzo[a]quinolizine-3-carboxylic acid], 8.05; as for `CCC1Cc2cc(OCC(C)C)c(OC)cc2-c2cc(=O)c(C(=O)O)cn21` (single isomer, unassigned; (+)) [Example 34, (+)-6-ethyl-9-isobutoxy-10-methoxy-2-oxo-6,7-dihydrobenzo[a]quinolizine-3-carboxylic acid], 8.40.
The same measure, in the same setting: as for `CCOc1cc2c(cc1OC)-c1cc(=O)c(C(=O)O)cn1C(CC)C2` (single isomer, unassigned; (+)) [Example 37, (+)-9-ethoxy-6-ethyl-10-methoxy-2-oxo-6,7-dihydrobenzo[a]quinolizine-3-carboxylic acid], the figure is 8.10.
Regarding `CCC1Cc2cc(OCCCOC)c(OC)cc2-c2cc(=O)c(C(=O)O)cn21` (single isomer, unassigned; (+)) [Example 40, (+)-6-ethyl-10-methoxy-9-(3-methoxypropoxy)-2-oxo-6,7-dihydrobenzo[a]quinolizine-3-carboxylic acid], the pIC50 was 7.89. Compared with the last compound, the pIC50 is 0.21 log units lower.
Same read-out and setting: in the case of `CCOCCOc1cc2c(cc1OC)-c1cc(=O)c(C(=O)O)cn1C(CC)C2` (single isomer, unassigned; (+)) [Example 43, (+)-9-(2-ethoxyethoxy)-6-ethyl-10-methoxy-2-oxo-6,7-dihydrobenzo[a]quinolizine-3-carboxylic acid] it was 7.34; in that of `CCC1Cc2cc(OCC(F)F)c(OC)cc2-c2cc(=O)c(C(=O)O)cn21` (single isomer, unassigned; (+)) [Example 46, (+)-9-(2,2-difluoroethoxy)-6-ethyl-10-methoxy-2-oxo-6,7-dihydrobenzo[a]quinolizine-3-carboxylic acid], 7.36; in that of `CCC1Cc2cc(OCC3CCOCC3)c(OC)cc2-c2cc(=O)c(C(=O)O)cn21` (single isomer, unassigned; (+)) [Example 49, (+)-6-ethyl-10-methoxy-2-oxo-9-(tetrahydropyran-4-ylmethoxy)-6,7-dihydrobenzo[a]quinolizine-3-carboxylic acid], 7.82.
The same measure, in the same setting: as for `COc1cc2c(cc1OC)-c1cc(=O)c(C(=O)O)cn1C(C)C2` (single isomer, unassigned; (+)) [Example 67, (+)-9,10-dimethoxy-6-methyl-2-oxo-6,7-dihydrobenzo[a]quinolizine-3-carboxylic acid], the figure is 6.42.
On the same count and under the same terms, as for `CCC1Cc2cc(OC)c(C3CC3)cc2-c2cc(=O)c(C(=O)O)cn21` (single isomer, unassigned; (+)) [Example 90, (+)-10-cyclopropyl-6-ethyl-9-methoxy-2-oxo-6,7-dihydrobenzo[a]quinolizine-3-carboxylic acid], the figure is 8.00.
As for `COc1cc2c(cc1OC)-c1cc(=O)c(C(=O)O)cn1C(CC(C)C)C2` (single isomer, unassigned; (+)) [Example 102, (+)-6-isobutyl-9,10-dimethoxy-2-oxo-6,7-dihydrobenzo[a]quinolizine-3-carboxylic acid], the pIC50 was 7.38.
Same read-out and setting: in the case of `COCCOc1cc2c(cc1Cl)-c1cc(=O)c(C(=O)O)cn1C(CC(C)C)C2` (single isomer, unassigned; (+)) [Example 105, (+)-10-chloro-6-isobutyl-9-(2-methoxyethoxy)-2-oxo-6,7-dihydrobenzo[a]quinolizine-3-carboxylic acid] it was 7.80; in that of `CCC1Cc2cc(OCc3ccccc3)c(C)cc2-c2cc(=O)c(C(=O)O)cn21` (single isomer, unassigned; (+)) [Example 116, (+)-9-benzyloxy-6-ethyl-10-methyl-2-oxo-6,7-dihydrobenzo[a]quinolizine-3-carboxylic acid], 7.48.
The same measure, in the same setting: as for `CCOc1cc2c(cc1Cl)-c1cc(=O)c(C(=O)O)cn1C(CC)C2` (single isomer, unassigned; (+)) [Example 118, (+)-10-chloro-9-ethoxy-6-ethyl-2-oxo-6,7-dihydrobenzo[a]quinolizine-3-carboxylic acid], the figure is 8.40; as for `COc1cc2c(cc1OCC(F)(F)F)CC(C(C)C)n1cc(C(=O)O)c(=O)cc1-2` (single isomer, unassigned; (+)) [Example 127, (+)-6-isopropyl-10-methoxy-2-oxo-9-(2,2,2-trifluoroethoxy)-6,7-dihydrobenzo[a]quinolizine-3-carboxylic acid], 8.10.
On the same count and under the same terms, as for `COCCOc1cc2c(cc1OC)-c1cc(=O)c(C(=O)O)cn1C(C(C)C)C2` (single isomer, unassigned; (+)) [Example 129, (+)-6-isopropyl-10-methoxy-9-(2-methoxyethoxy)-2-oxo-6,7-dihydrobenzo[a]quinolizine-3-carboxylic acid], the figure is 7.92; as for `COCCCOc1cc2c(cc1OC)-c1cc(=O)c(C(=O)O)cn1C(C(C)(C)C)C2` (single isomer, unassigned; (+)) [Example 132, (+)-6-tert-butyl-10-methoxy-9-(3-methoxypropoxy)-2-oxo-6,7-dihydrobenzo[a]quinolizine-3-carboxylic acid], 9.00.
Take `COCCOc1cc2c(cc1OC)-c1cc(=O)c(C(=O)O)cn1C(C1(C)CC1)C2` (single isomer, unassigned; (+)) [Example 135, (+)-10-methoxy-9-(2-methoxyethoxy)-6-(1-methylcyclopropyl)-2-oxo-6,7-dihydrobenzo[a]quinolizine-3-carboxylic acid]: the pIC50 is 8.40.
For the compound `COCCCOc1cc2c(c(Cl)c1F)-c1cc(=O)c(C(=O)O)cn1C(C(C)C)C2` (single isomer, unassigned; (+)) [Example 138, (+)-11-chloro-10-fluoro-6-isopropyl-9-(3-methoxypropoxy)-2-oxo-6,7-dihydrobenzo[a]quinolizine-3-carboxylic acid], the pIC50 was 8.05.
As for `COc1cc2c(cc1OCC(F)F)CC(C(C)C)n1cc(C(=O)O)c(=O)cc1-2` (single isomer, unassigned; (+)) [Example 142, (+)-9-(2,2-difluoroethoxy)-6-isopropyl-10-methoxy-2-oxo-6,7-dihydrobenzo[a]quinolizine-3-carboxylic acid], the negative logarithm of the IC50 (pIC50) is 8.40.
In turn, `COc1cc2c(cc1OCC(C)(C)CO)CC(C(C)C)n1cc(C(=O)O)c(=O)cc1-2` (single isomer, unassigned; (+)) [Example 145, (+)-9-(3-hydroxy-2,2-dimethyl-propoxy)-6-isopropyl-10-methoxy-2-oxo-6,7-dihydrobenzo[a]quinolizine-3-carboxylic acid] showed a pIC50 of 8.22.
Still for that read-out and setting: in the case of `COc1cc2c(cc1OCC(C)(C)CO)CC(C(C)(C)C)n1cc(C(=O)O)c(=O)cc1-2` (single isomer, unassigned; (+)) [Example 150, (+)-6-tert-butyl-9-(3-hydroxy-2,2-dimethyl-propoxy)-10-methoxy-2-oxo-6,7-dihydrobenzo[a]quinolizine-3-carboxylic acid] it was 8.70.

Staying with this experiment, now noted: Hepatitis B virus, HepG2.2.15, HBsAg secretion reduced by 50% vs no drug control; HepG2.2.15 cells; CLIA kit.
`CC[C@@H]1[C@@H](C)c2cc(OCCOC)c(Cl)cc2-c2cc(=O)c(C(=O)O)cn21` (relative stereo) [Example 212A, (6R*, 7S*)-10-chloro-6-ethyl-9-(2-methoxyethoxy)-7-methyl-2-oxo-6,7-dihydrobenzo[a]quinolizine-3-carboxylic acid]: the pIC50 is 6.48.
Same read-out and setting: in the case of `CC[C@@H]1[C@H](C)c2cc(OCCOC)c(Cl)cc2-c2cc(=O)c(C(=O)O)cn21` (relative stereo) [Example 212B, (6R*,7R*)-10-chloro-6-ethyl-9-(2-methoxyethoxy)-7-methyl-2-oxo-6,7-dihydrobenzo[a]quinolizine-3-carboxylic acid] it was 7.54.
